Values belong to the compound of their own block, whether it stands above or below them.
What was measured:
[1] = Reactivity (second order rate constant k2) between TZ Triggers and TCO Activator 4.9 in MeCN at 20° C.; assay type: physicochemical
Description: The second order rate constant of the reaction (k2) between a TZ and TCO 4.9 was determined under pseudo first order conditions in MeCN at 20° C. using UV spectroscopic monitoring. […] From the decrease of this absorption, the half-life of the pseudo first order reaction between TZ and TCO was determined. The second order rate constant k2 was obtained by calculation from this half-life and the concentration of TCO

[2] = Stability of tetrazine (TZ) Triggers in a MeCN/PBS mixture
Description: (§2) 10 μL of a 25 mM TZ stock solution in DMSO (2.5×10^−7 mol TZ) was diluted with MeCN and PBS to a total volume of 1 mL. The aqueous solution was incubated at 20° C. or at 37° C. At selected time points, the TZ solution was analyzed by HPLC-PDA/MS.

[3] = tested on: LS174T colon carcinoma xenografts; experiment: In vivo on-tumor reaction between ADC and TCO activators (tumor blocking, ^111In-TCO probe uptake); parameters: species or system mouse; details: ADC (2 mg/kg), one hour later ^111In-TCO probe, 4 h after probe injection
Description: DOTA-PEG11-TCO probe 4.4 was labeled with indium-111 in 0.2 M ammonium acetate buffer (pH 6.0) for 10 min at 60° C. followed by a DTPA-challenge to complex any unreacted radiometal. The radiolabeling yield (>95%) and radiochemical purity (>95%) of the obtained ^111In-TCO probe was assessed by radio-ITLC and radio-RP-HPLC, respectively. The on-tumor reactivity between AVP0450-15.4 ADC and two different activators, sTCO—COOH (4.8) and sTCO-PEG11-OH (4.6) in two different doses (100 and 1000 eq with respect to ADC) was evaluated with an in vivo competition assay (tumor blocking), as previously described for a CC49-TCO-Dox conjugate and tetrazine-activators (R. Rossin et al., Bioconjug Chem 2016, 27, 1697-1706). Briefly, mice bearing subcutaneous LS174T colon carcinoma xenografts (n=4 per group) were administered the ADC (2 mg/kg) followed after 48 h by the activator and, one hour later, by the ^111In-TCO probe (1 eq with respect to ADC). The probe uptake in tumors was then compared with mice that received the ADC followed only by the ^111In-TCO probe (no blocking) and with mice that received the ^111In-TCO probe alone (complete blocking). All mice were euthanized 4 h after probe injection. Blood samples were obtained from heart puncture, tumors and other tissues of interest were dissected, blotted dry, weighed and counted in a gamma-counter.

[4] = Rate of release of Constructs from IEDDA adducts formed by activation of TZ Trigger with TCO Activator 4.9; assay type: physicochemical
Description: (§1) Then, 10 μL of a 50 mM TCO 4.9 stock solution in DMSO (5.0×10^−7 mol TCO) was added. After the complete disappearance of the pink color (this takes typically between 5 and 30 min, and is due to the IEDDA reaction between TZ and TCO thereby forming IEDDA adducts), the sample was diluted with PBS to a total volume of 1 mL (t=0). […] At selected time points, this solution was analyzed by HPLC-PDA/MS. The decrease of the IEDDA adduct absorption(s) and/or the rise of the leaving group absorption indicated the conversion of the release reaction. […] Alternatively, the rate of the release reaction can be indicated by the conversion (in %) after a certain reaction time (in hours).

[5] = Rate of release of Constructs as Example 7 but after reaction with sTCO 4.8; assay type: physicochemical; details: Method E: 5% MeCN in PBS at 37° C.
Description: as §1, with “Then, 10 μL of a 50 mM TCO 4.9 stock solution in DMSO (5.0×10^−7 mol TCO) was added.” left out

physchem = details: buffer
Description: as §2

[6] = Reactivity (k2) as Example 6 but assessed with sTCO 4.8; assay type: physicochemical; details: assessed with sTCO 4.8 and not TCO 4.9; MeCN at 20° C.
Description: A cuvette was filled with 3 mL of a 3.33 mM TCO solution in MeCN (1.0×10^−5 mol TCO) and this solution was equilibrated at 20° C. […] From the decrease of this absorption, the half-life of the pseudo first order reaction between TZ and TCO was determined. The second order rate constant k2 was obtained by calculation from this half-life and the concentration of TCO

[7] = Rate of release of a Construct from the IEDDA adduct in 50% mouse serum/PBS; assay type: in vitro ADME; details: 37° C., 21 h
Description: 10 μL of a 25 mM TZ stock solution in DMSO (2.5×10^−7 mol TZ) was diluted with MeCN (50 μL), PBS (475 μL), and mouse serum (475 μL). Then, a stock solution of the appropriate TCO (20 μL 50 mM in DMSO; 1.0×10^−6 mol) was added, and the mixture was incubated at 37° C. At selected time points, aliquots (250 μL) were taken, diluted with cold MeCN (500 μL), stored at 4° C. for 30 min, and then centrifuged at 13400 rpm for 5 min. Part of the clear supernatant (250 μL) was diluted with water (500 μL) and the sample was analyzed by HPLC-PDA/MS.

[8] = Stability of TZ Triggers in 50% mouse serum/PBS; assay type: in vitro ADME; details: 37° C.
Description: The mixture was incubated at 37° C. […] The stability was determined as outlined in Example 5.

[9] = Rate of release of Constructs from IEDDA adducts formed by activation of TZ Trigger with TCO Activator 4.9; assay type: physicochemical; details: Method F: MeCN at 37° C.; 23 h
[10] = Method A: 33% MeCN in PBS at 20° C., 16 h
[11] = Method C: 20% MeCN in PBS at 37° C., 16 h

SMILES: Cc1cc(C)cc(NC(=O)OC(C)c2nnc(-c3ccccc3)nn2)c1 (racemic) [Compound 2.17]
Reactivity k2 ([1]; TZ with TCO in MeCN at 20° C.): 4.5 M⁻¹ s⁻¹

half-life at 250 µM [2]: > 4800 h
SMILES: CC(OC(=O)N(C)Cc1ccccc1)c1nnc(-c2ccc(N)cc2)nn1 (centres unmarked) [Compound 2.49]
Reactivity k2 ([1]; TZ with TCO in MeCN at 20° C.): 0.44 M⁻¹ s⁻¹

SMILES: O=C(O)[C@@H]1[C@@H]2CC/C=C/CC[C@@H]21 [Compound 4.8, (E-endo)-bicyclo[6.1.0]non-4-ene-9-carboxylic acid]
^111In-uptake in tumor ([3]; after 48 h activator 100 eq): 0.13 ± 0.03 % ID/g | ^111In-uptake in tumor ([3]; after 48 h activator 1000 eq): 0.10 ± 0.03 % ID/g

half-life at 250 µM [2]: 18 h
SMILES: CC(OC(=O)c1ccccc1)c1nnc(C(C)OC(=O)c2ccccc2)nn1 (centres unmarked) [Compound 2.7]
Release % (conversion) [4, 10]: 96% (16 h)

SMILES: CC(OC(=O)N(C)c1ccccc1)c1nnc(-c2ccccc2)nn1 (racemic) [Compound 2.22]
Reactivity k2 ([1]; TZ with TCO in MeCN at 20° C.): 2.51 M⁻¹ s⁻¹

half-life at 250 µM [2]: > 400 h
SMILES: O=C(Nc1ccccc1)OC/C=C/c1nnc(-c2ccccc2)nn1 [Compound 2.53]

SMILES: CCN(Cc1nnc(-c2cccc(NC(=O)COCCOCCOCCOCCOCCOCCOCCOCCOCCOCCOC)c2)nn1)C(=O)Oc1ccc(COC(=O)Nc2ccc3c(C)cc(=O)oc3c2)cc1 [Compound 3.33]
Reactivity k2 ([1]; TZ with TCO in MeCN at 20° C. (cyclization series)): 4.7 M⁻¹ s⁻¹ | Release % (conversion) ([5]; 1 h): 20% | Release % (conversion) ([5]; 8 h): 80% | half-life (physchem): 200 h | Reactivity k2 [6]: 520 ([5]) M^−1 s^−1 | Release % (conversion) ([4]; Method E: 5% MeCN in PBS at 37° C., 1 h): 50% | Release % (conversion) ([4]; Method E: 5% MeCN in PBS at 37° C., 4 h): 80% | Release % (conversion) ([4]; Method E: 5% MeCN in PBS at 37° C., 72 h): 90%

SMILES: O=C(NCCOCCOCCOCCOCCOCCOCCOCCOCCOCCO)[C@@H]1[C@@H]2CC/C=C/CC[C@@H]21 [Compound 4.6]
^111In-uptake in tumor ([3]; after 48 h activator 100 eq): 0.15 ± 0.05 % ID/g | ^111In-uptake in tumor ([3]; after 48 h activator 1000 eq): 0.14 ± 0.52 % ID/g

SMILES: O=C(NC1CCCC1c1nnc(-c2ccccc2)nn1)Oc1ccccc1 (centres unmarked) [Compound 3.25]
half-life (physchem): > 140 h | Release % (conversion) ([4]; Method G: 50% MeCN in PBS at 37° C., 16 h): 57% (16 h)

Stability t1/2 [8]: 32 h
SMILES: CC(C)c1nnc(COC(=O)N(C)Cc2ccccc2)nn1 [Compound 2.19]
Reactivity k2 ([1]; TZ with TCO in MeCN at 20° C.): 0.79 M⁻¹ s⁻¹ | Release % (conversion) ([7]; Dienophile 4.0, axial isomer): 61% (21 h)

half-life at 250 µM [2]: < 4 h
SMILES: O=C(OCc1nnc(-c2ccccc2)nn1)Oc1ccccc1 [Compound 2.18]
Release % (conversion) [9]: 10% (23 h)

SMILES: O=C(NCc1nnc(CNC(=O)Oc2ccccc2)nn1)Oc1ccccc1 [Compound 3.2]
Release % (conversion) ([4]; Method B: 33% MeCN in PBS at 37° C., 19 h): 25% (19 h)

SMILES: O=C(NCc1ccccc1)OCc1nnc(COC(=O)NCc2ccccc2)nn1 [Compound 2.4]
Reactivity k2 ([1]; TZ with TCO in MeCN at 20° C.): 24 M⁻¹ s⁻¹

SMILES: CC(C)c1nnc(/C=C/COC(=O)Nc2ccccc2)nn1 [Compound 2.57]
Reactivity k2 ([1]; TZ with TCO in MeCN at 20° C.): 0.33 M⁻¹ s⁻¹ | half-life at 250 µM (physchem): > 400 h

half-life at 250 µM [2]: 650 h | half-life at 248 µM ([8]; 50% mouse serum in PBS, read-out: Stability t1/2 (converted)): 55 h
SMILES: CC(C)c1nnc(C(C)OC(=O)N(Cc2ccccc2)C(C)C)nn1 (centres unmarked) [Compound 2.42]
Reactivity k2 ([1]; TZ with TCO in MeCN at 20° C.): 0.21 M⁻¹ s⁻¹ | Release % (conversion) ([7]; Dienophile 4.8, endo isomer): 77% (21 h) | Release % (conversion) [4, 11]: 100% (16 h)

half-life at 250 µM [2]: > 150 h
SMILES: O=C(Oc1ccccc1)N1CCCC1c1nnc(-c2ccccc2)nn1 (centres unmarked) [Compound 3.27]
Release % (conversion) ([4]; Method C: 20% MeCN in PBS at 37° C., 24 h): 49% | Release % (conversion) ([4]; Method C: 20% MeCN in PBS at 37° C., 48 h): 72%

half-life at 250 µM [2]: 6.5 h
SMILES: CC(OC(=O)OCc1ccccc1)c1nnc(C(C)OC(=O)OCc2ccccc2)nn1 (centres unmarked) [Compound 2.8]
Release % (conversion) [4, 10]: 100% (16 h)

SMILES: CC(OC(=O)N(C)Cc1ccccc1)c1nnc(C(C)OC(=O)N(C)Cc2ccccc2)nn1 (mixture of isomers) [Compound 2.36]
Release % (conversion) [4, 11]: 100% (16 h)

SMILES: CC(C)c1nnc(C(C)OC(=O)N(C)c2ccccc2)nn1 (racemic) [Compound 2.20]
Reactivity k2 ([1]; TZ with TCO in MeCN at 20° C.): 0.19 M⁻¹ s⁻¹ | Release % (conversion) ([4]; Method C: 20% MeCN in PBS at 37° C., 1.3 h): 45% | Release % (conversion) [4, 11]: 100%

Stability t1/2 [8]: 16 h
SMILES: CN(Cc1ccccc1)C(=O)OCc1nnc(CCN(C)C(=O)OC(C)(C)C)nn1 [Compound 2.24]
Reactivity k2 ([1]; TZ with TCO in MeCN at 20° C.): 4.6 M⁻¹ s⁻¹ | Release % (conversion) ([7]; Dienophile 4.0, axial isomer): 51% (21 h)

half-life at 250 µM [2]: > 4800 h
SMILES: CC(OC(=O)N(C)Cc1ccccc1)c1nnc(-c2ccc(NC(=O)OC(C)(C)C)cc2)nn1 (centres unmarked) [Compound 2.48]
Reactivity k2 ([1]; TZ with TCO in MeCN at 20° C.): 1.46 M⁻¹ s⁻¹

SMILES: CC(OC(=O)N(c1ccccc1)C(C)C)c1nnc(C(C)OC(=O)N(c2ccccc2)C(C)C)nn1 (mixture of isomers) [Compound 2.40]
Reactivity k2 ([1]; TZ with TCO in MeCN at 20° C.): 1.22 M⁻¹ s⁻¹ | Release % (conversion) ([4]; Method C: 20% MeCN in PBS at 37° C., 22 h): 100% (22 h)

SMILES: CC(OC(=O)N(C)Cc1ccccc1)c1nnc(-c2ccccc2)nn1 (racemic) [Compound 2.21]
Reactivity k2 ([1]; TZ with TCO in MeCN at 20° C.): 2.54 M⁻¹ s⁻¹

SMILES: CC(OC(=O)NCc1ccccc1)c1nnc(C(C)OC(=O)NCc2ccccc2)nn1 (mixture of isomers) [Compound 2.5]
Reactivity k2 ([1]; TZ with TCO in MeCN at 20° C.): 1.5 M⁻¹ s⁻¹
